Laboratory results taken from ChEMBL document CHEMBL5143515, “Identification of new halogen-containing 2,4-diphenyl indenopyridin-5-one derivative as a boosting agent for the anticancer responses of clinically available topoisomerase inhibitors” (Eur J Med Chem, 2022).
Each block holds one compound with its values, some of them ahead of it.

Key:
[1] = target: T1, DNA topoisomerase 1 (Homo sapiens) (UniProt P11387); experiment: Inhibition of recombinant human topoisomerase 1 assessed as relaxation of supercoiled plasmid pBR322 DNA at 100 uM by agarose gel electrophoresis (reference value: […]%)
T1 sequence (whole entry): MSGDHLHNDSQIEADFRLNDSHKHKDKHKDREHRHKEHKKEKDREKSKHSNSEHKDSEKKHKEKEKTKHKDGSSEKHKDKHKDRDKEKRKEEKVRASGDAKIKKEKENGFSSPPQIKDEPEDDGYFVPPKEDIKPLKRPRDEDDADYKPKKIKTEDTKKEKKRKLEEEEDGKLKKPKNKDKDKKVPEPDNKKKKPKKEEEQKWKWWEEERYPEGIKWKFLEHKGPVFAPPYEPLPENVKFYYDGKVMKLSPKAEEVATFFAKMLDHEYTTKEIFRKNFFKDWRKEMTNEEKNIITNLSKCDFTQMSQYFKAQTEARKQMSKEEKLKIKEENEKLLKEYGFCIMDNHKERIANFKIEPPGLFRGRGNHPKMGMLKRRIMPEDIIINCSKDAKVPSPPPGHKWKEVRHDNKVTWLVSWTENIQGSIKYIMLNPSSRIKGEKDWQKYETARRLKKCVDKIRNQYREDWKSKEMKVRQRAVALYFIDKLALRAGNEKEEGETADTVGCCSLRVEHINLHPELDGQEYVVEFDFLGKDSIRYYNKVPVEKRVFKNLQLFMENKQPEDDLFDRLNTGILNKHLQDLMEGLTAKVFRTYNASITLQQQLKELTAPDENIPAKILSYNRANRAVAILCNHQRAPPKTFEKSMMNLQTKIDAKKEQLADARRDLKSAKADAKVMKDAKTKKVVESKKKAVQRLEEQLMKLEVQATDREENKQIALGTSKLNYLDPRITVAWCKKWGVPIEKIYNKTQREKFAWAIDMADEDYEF

[2] = target: DNA topoisomerase 2-alpha (Homo sapiens) (UniProt P11388); experiment: Inhibition of recombinant human topoisomerase 2alpha assessed as relaxation of supercoiled plasmid pBR322 DNA at 100 uM by agarose gel electrophoresis (reference value: 84.9%)
Sequence of DNA topoisomerase 2-alpha (Homo sapiens) (P11388 whole entry): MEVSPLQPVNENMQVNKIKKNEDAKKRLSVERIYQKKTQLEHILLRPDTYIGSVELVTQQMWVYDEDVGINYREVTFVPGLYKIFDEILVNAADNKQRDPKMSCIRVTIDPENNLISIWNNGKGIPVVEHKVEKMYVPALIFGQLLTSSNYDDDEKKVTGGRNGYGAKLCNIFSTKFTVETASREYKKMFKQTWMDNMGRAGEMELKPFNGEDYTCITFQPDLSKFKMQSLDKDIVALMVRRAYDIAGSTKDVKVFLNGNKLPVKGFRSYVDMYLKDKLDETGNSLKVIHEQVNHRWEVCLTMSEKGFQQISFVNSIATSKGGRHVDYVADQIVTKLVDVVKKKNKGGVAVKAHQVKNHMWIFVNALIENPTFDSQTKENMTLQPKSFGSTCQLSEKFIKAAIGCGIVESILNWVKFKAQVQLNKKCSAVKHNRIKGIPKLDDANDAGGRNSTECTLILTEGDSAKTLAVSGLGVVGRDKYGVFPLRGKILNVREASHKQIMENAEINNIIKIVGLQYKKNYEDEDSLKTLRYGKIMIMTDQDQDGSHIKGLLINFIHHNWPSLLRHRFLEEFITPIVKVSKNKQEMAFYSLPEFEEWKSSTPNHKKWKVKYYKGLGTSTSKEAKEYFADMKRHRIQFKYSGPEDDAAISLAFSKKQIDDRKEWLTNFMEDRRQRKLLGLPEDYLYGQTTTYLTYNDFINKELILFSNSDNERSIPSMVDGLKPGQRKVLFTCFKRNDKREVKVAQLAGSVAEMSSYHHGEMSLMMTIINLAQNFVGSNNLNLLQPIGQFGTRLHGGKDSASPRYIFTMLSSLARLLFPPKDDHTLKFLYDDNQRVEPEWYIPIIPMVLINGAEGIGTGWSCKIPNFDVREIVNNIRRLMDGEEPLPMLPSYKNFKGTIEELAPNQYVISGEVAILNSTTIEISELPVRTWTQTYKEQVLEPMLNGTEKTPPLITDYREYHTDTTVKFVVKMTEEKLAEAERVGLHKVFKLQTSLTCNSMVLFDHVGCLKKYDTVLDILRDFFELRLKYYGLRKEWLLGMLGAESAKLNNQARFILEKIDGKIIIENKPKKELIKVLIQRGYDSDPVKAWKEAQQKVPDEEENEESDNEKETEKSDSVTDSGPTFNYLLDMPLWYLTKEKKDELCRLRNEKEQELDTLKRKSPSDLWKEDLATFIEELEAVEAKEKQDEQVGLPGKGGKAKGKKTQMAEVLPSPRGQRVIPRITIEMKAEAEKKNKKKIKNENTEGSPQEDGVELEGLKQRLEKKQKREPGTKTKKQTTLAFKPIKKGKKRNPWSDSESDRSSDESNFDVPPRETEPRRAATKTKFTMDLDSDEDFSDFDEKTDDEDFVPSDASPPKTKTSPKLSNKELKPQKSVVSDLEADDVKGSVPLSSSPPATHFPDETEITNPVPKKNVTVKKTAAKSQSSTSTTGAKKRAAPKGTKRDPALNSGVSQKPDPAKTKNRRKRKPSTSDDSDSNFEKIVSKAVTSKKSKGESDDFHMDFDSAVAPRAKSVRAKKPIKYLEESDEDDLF

[3] = target: DNA topoisomerase 2-alpha (Homo sapiens) (UniProt P11388); experiment: Inhibition of recombinant human topoisomerase 2alpha assessed as relaxation of supercoiled plasmid pBR322 DNA at 20 uM by agarose gel electrophoresis relative to control
DU-145 = experiment: Antiproliferative activity against human DU-145 cells after 72 hrs by EZ-Cytox colorimetric assay; type: functional, cell-based; details: DU-145, 72 h
HCT-15 = experiment: Antiproliferative activity against human HCT-15 cells after 72 hrs by EZ-Cytox colorimetric assay; type: functional, cell-based; details: HCT-15, 72 h
HeLa = experiment: Antiproliferative activity against human HeLa cells after 72 hrs by EZ-Cytox colorimetric assay; type: functional, cell-based
T47D = experiment: Antiproliferative activity against human T47D cells after 72 hrs by EZ-Cytox colorimetric assay; type: functional, cell-based
[4] = target: T1, DNA topoisomerase 1 (Homo sapiens); experiment: Inhibition of recombinant human topoisomerase 1 assessed as relaxation of supercoiled plasmid pBR322 DNA at 20 uM by agarose gel electrophoresis relative to control
[5] = target: DNA topoisomerase 2-alpha (Homo sapiens) (UniProt P11388); experiment: Inhibition of recombinant human topoisomerase 2alpha assessed as relaxation of supercoiled plasmid pBR322 DNA at 100 uM by agarose gel electrophoresis relative to control
[6] = target: T1, DNA topoisomerase 1 (Homo sapiens); experiment: Inhibition of recombinant human topoisomerase 1 assessed as relaxation of supercoiled plasmid pBR322 DNA at 100 uM by agarose gel electrophoresis (reference value: 81.9%)
[7] = target: T1, DNA topoisomerase 1 (Homo sapiens); experiment: Inhibition of recombinant human topoisomerase 1 assessed as relaxation of supercoiled plasmid pBR322 DNA at 20 uM by agarose gel electrophoresis (reference value: 38.3%)
[8] = target: DNA topoisomerase 2-alpha (Homo sapiens) (UniProt P11388); experiment: Inhibition of recombinant human topoisomerase 2alpha assessed as relaxation of supercoiled plasmid pBR322 DNA at 100 uM by agarose gel electrophoresis (reference value: 81%)
[9] = target: DNA topoisomerase 2-alpha (Homo sapiens) (UniProt P11388); experiment: Inhibition of recombinant human topoisomerase 2alpha assessed as relaxation of supercoiled plasmid pBR322 DNA at 20 uM by agarose gel electrophoresis (reference value: […]%)
[10] = Genotoxicity in human HCT-15 cells assessed as production of Ub1-gamma-H2AX at 100 nM and measured by western blot analysis; type: toxicity, cell-based; details: hct-15, 0.1 µM
[11] = Genotoxicity in human HCT-15 cells assessed as production of gamma-H2AX at 100 nM and measured by western blot analysis; type: toxicity, cell-based; details: hct-15, 0.1 µM
[12] = Genotoxicity in human HCT-15 cells assessed as production of fragmented DNA tails at 100 nM and measured by comet assay; type: toxicity, cell-based; details: hct-15, 0.1 µM
[13] = Genotoxicity in human HCT-15 cells assessed as production of Ub1-gamma-H2AX at 1 nM and measured by western blot analysis; type: toxicity, cell-based; details: hct-15, 0.001 µM
[14] = Genotoxicity in human HCT-15 cells assessed as production of gamma-H2AX at 1 nM and measured by western blot analysis; type: toxicity, cell-based; details: hct-15, 0.001 µM
[15] = Genotoxicity in human HCT-15 cells assessed as production of fragmented DNA tails at 1 nM and measured by comet assay; type: toxicity, cell-based; details: hct-15, 0.001 µM
[16] = Genotoxicity in human HCT-15 cells assessed as production of Ub1-gamma-H2AX at 2 uM and measured by western blot analysis; type: toxicity, cell-based; details: hct-15, 2 µM
[17] = Genotoxicity in human HCT-15 cells assessed as production of gamma-H2AX at 2 uM and measured by western blot analysis; type: toxicity, cell-based; details: hct-15, 2 µM
[18] = Genotoxicity in human HCT-15 cells assessed as production of fragmented DNA tails at 2 uM and measured by comet assay; type: toxicity, cell-based; details: hct-15, 2 µM
[19] = Genotoxicity in human HCT-15 cells assessed as production of Ub1-gamma-H2AX at 0.2 uM and measured by western blot analysis; type: toxicity, cell-based; details: hct-15, 0.2 µM
[20] = Genotoxicity in human HCT-15 cells assessed as production of gamma-H2AX at 0.2 uM and measured by western blot analysis; type: toxicity, cell-based; details: hct-15, 0.2 µM
[21] = Genotoxicity in human HCT-15 cells assessed as production of fragmented DNA tails at 0.2 uM and measured by comet assay; type: toxicity, cell-based; details: hct-15, 0.2 µM
[22] = Toxicity in mouse assessed as reduction in number of white blood cells at 2 to 20 mg/kg; type: organism-based; details: in vivo, dose 2-20 mg/kg
[23] = Toxicity in mouse assessed as reduction in number of absolute neutrophil count at 2 to 20 mg/kg; type: organism-based; details: dose 2-20 mg/kg
[24] = Toxicity in mouse assessed as reduction in number of red blood cells at 20 mg/kg; type: organism-based; details: in vivo
[25] = Toxicity in mouse assessed as reduction in hemoglobin level at 20 mg/kg; type: organism-based; details: in vivo
[26] = Toxicity in mouse assessed as increase in mean corpuscular volume of RBC at 20 mg/kg; type: organism-based, Erythrocyte; details: in vivo
[27] = Toxicity in mouse assessed as increase in d red cell distribution width at 20 mg/kg; type: organism-based; details: in vivo
[28] = Toxicity in mouse assessed as reduction in number of red blood cells at 2 mg/kg; type: organism-based; details: in vivo
[29] = Toxicity in mouse assessed as reduction in hemoglobin level at 2 mg/kg; type: organism-based; details: in vivo
[30] = Toxicity in mouse assessed as increase in mean corpuscular volume of RBC at 2 mg/kg; type: organism-based, Erythrocyte; details: in vivo
[31] = Toxicity in mouse assessed as increase in d red cell distribution width at 2 mg/kg; type: organism-based; details: in vivo
[32] = target: T1, DNA topoisomerase 1 (Homo sapiens); experiment: Inhibition of recombinant human topoisomerase 1 assessed as relaxation of supercoiled plasmid pBR322 DNA at 100 uM by agarose gel electrophoresis relative to control

SMILES: OC1c2ccccc2-c2nc(-c3ccc(OC(F)(F)F)cc3)cc(-c3ccccc3)c21 (stereo not given)
inhibition [1]: 26.8%
inhibition [2]: 61.2%
inhibition [3]: 8.7%
IC50 (DU-145): > 50 µM
IC50 (HCT-15): > 50 µM
IC50 (HeLa): > 50 µM
IC50 (T47D): > 50 µM

SMILES: OC1c2ccccc2-c2nc(-c3cccc(C(F)(F)F)c3)cc(-c3ccccc3)c21 (stereo not given)
inhibition [1]: 25.9%
inhibition [2]: 57.3%
inhibition [3]: 9.3%
IC50 (DU-145): > 50 µM
IC50 (HCT-15): > 50 µM
IC50 (HeLa): > 50 µM
IC50 (T47D): > 50 µM

SMILES: OC1c2ccccc2-c2nc(-c3ccc(C(F)(F)F)cc3)cc(-c3ccccc3)c21 (stereo not given)
inhibition [1]: 13.8%
inhibition [2]: 51.2%
inhibition [3]: 9.9%
IC50 (DU-145): 338 µM
IC50 (HCT-15): > 50 µM
IC50 (HeLa): > 50 µM
IC50 (T47D): 24.8 µM

SMILES: OC1c2ccccc2-c2nc(-c3cccc(OC(F)(F)F)c3)cc(-c3ccccc3)c21 (stereo not given)
inhibition [1]: 18.3%
inhibition [2]: 66.7%
inhibition [3]: 12.2%
IC50 (DU-145): > 50 µM
IC50 (HCT-15): > 50 µM
IC50 (HeLa): > 50 µM
IC50 (T47D): 14.8 µM

SMILES: CC[C@@]1(O)C(=O)OCc2c1cc1n(c2=O)Cc2cc3ccccc3nc2-1 [CAMPTOTHECIN]
IC50 (DU-145): 0.21 µM
IC50 (HeLa): 0.23 µM
IC50 (T47D): 0.09 µM
Activity [10]: Toxic
Activity [11]: Toxic
Activity [12]: Toxic
Activity [13]: Non-Toxic
Activity [14]: Non-Toxic
Activity [15]: Non-Toxic

SMILES: COc1cc([C@@H]2c3cc4c(cc3[C@@H](O[C@@H]3O[C@@H]5CO[C@@H](C)O[C@H]5[C@H](O)[C@H]3O)[C@H]3COC(=O)[C@H]23)OCO4)cc(OC)c1O [ETOPOSIDE]
IC50 (DU-145): 4.13 µM
IC50 (HCT-15): 2.38 µM
IC50 (HeLa): 8.09 µM
IC50 (T47D): 5.58 µM
Activity [16]: Toxic
Activity [17]: Toxic
Activity [18]: Toxic
Activity [19]: Non-Toxic
Activity [20]: Non-Toxic
Activity [21]: Non-Toxic
Activity [22]: Toxic
Activity [23]: Toxic
Activity [24]: Toxic
Activity [25]: Toxic
Activity [26]: Toxic
Activity [27]: Toxic
Activity [28]: Non-Toxic
Activity [29]: Non-Toxic
Activity [30]: Non-Toxic
Activity [31]: Non-Toxic

More lines, main results first:

inhibition [4]: 0%
SMILES: OC1c2ccccc2-c2nc(-c3ccccc3)cc(-c3ccccc3)c21 (stereo not given)

inhibition [5]: 2.5%
SMILES: O=C1c2ccccc2-c2nc(-c3ccccc3)cc(-c3ccccc3)c21

inhibition [1]: 7.2%
inhibition [2]: 52.2%
inhibition [3]: 8.1%
SMILES: OC1c2ccccc2-c2nc(-c3ccccc3C(F)(F)F)cc(-c3ccccc3)c21 (stereo not given)
IC50 (DU-145): > 50 µM
IC50 (HCT-15): > 50 µM
IC50 (HeLa): > 50 µM
IC50 (T47D): > 50 µM

inhibition [6]: 81.9%
inhibition [7]: 22.5%
inhibition [8]: 92.2%
inhibition [9]: 3.4%
SMILES: O=C1c2ccccc2-c2nc(-c3cccc(C(F)(F)F)c3)cc(-c3ccccc3)c21
IC50 (DU-145): 15.2 µM
IC50 (HCT-15): 21.5 µM
IC50 (HeLa): > 50 µM
IC50 (T47D): > 50 µM

inhibition [1]: 37.4%
inhibition [4]: 1%
inhibition [2]: 86%
inhibition [3]: 13.8%
SMILES: OC1c2ccccc2-c2nc(-c3ccccc3OC(F)(F)F)cc(-c3ccccc3)c21 (stereo not given)
IC50 (DU-145): 0.71 µM
IC50 (HCT-15): 7.33 µM
IC50 (HeLa): 1730 µM
IC50 (T47D): 1.06 µM

inhibition [32]: 0%
SMILES: O=C1c2ccccc2-c2nc(-c3ccccc3O)cc(-c3ccccc3)c21

inhibition [6]: 45%
inhibition [7]: 15.6%
inhibition [8]: 83.1%
inhibition [9]: 0.9%
SMILES: O=C1c2ccccc2-c2nc(-c3ccccc3C(F)(F)F)cc(-c3ccccc3)c21
IC50 (DU-145): 34 µM
IC50 (HCT-15): > 50 µM
IC50 (HeLa): > 50 µM
IC50 (T47D): > 50 µM

inhibition [32]: 0%
SMILES: O=C1c2ccccc2-c2nc(-c3ccc(O)cc3)cc(-c3ccccc3)c21

inhibition [6]: 89.8%
inhibition [7]: 8.1%
inhibition [8]: 57.2%
inhibition [9]: 0.3%
SMILES: O=C1c2ccccc2-c2nc(-c3ccc(C(F)(F)F)cc3)cc(-c3ccccc3)c21
IC50 (DU-145): 42.2 µM
IC50 (HCT-15): 20.5 µM
IC50 (HeLa): > 50 µM
IC50 (T47D): > 50 µM
